Assay results published in patent publication US6531462B2, “Medicament for treating obesity and improving lipid metabolism” (priority 1997, dated 2003).
Marks after values point to notes of the source that are not given here.

How the values were obtained:
[1] = Example 1: general conditions and autopsical finding; format: in vivo, CDF1 male mice; settings: 0.5% in feed, 2 weeks
Procedure: (§1) 5-Sitosten-3-one was prepared according to the method of Parish (Parish, E. J., et al., Synthetic Communication, 22, pp.2839-2847, 1992) by using β-sitosterol (Tokyo Chemical Industry Co., Ltd.) as a starting material and used in the experiments. The content ratio of 24-ethyl and 24-methyl compounds in the synthesized product was 6.5:3.5. As experimental animals, six CDF1 male mice (5-week old, Charles River Japan Inc.) were used in each experimental group. The animals were fed in aluminum cages for mice, and allowed to feed and water ad libitum. The animals were fed for 2 weeks under feeding conditions at a temperature of 24±1° C. and a relative humidity of 55±5%, where light and darkness were controlled to change every 12 hours, and each cage and floor mat (white flakes) were exchanged twice a week.
(§2) Modified AIN (Oriental Yeast Co.) was used as basic feed and mixed with 0.5% 5-sitosten-3-one to prepare test feeds. A feed used as a positive control was prepared by adding 0.5% of 4-cholesten-3-one (Japanese Patent Unexamined Publication No. Hei 5-170651/1993) to the basic feed. Non-treated mice as a control were fed solely with the basic feed. The basic feed was composed of 22.8% crude protein, 54.1% carbohydrates, 6.0% lipids, 4.9% fibers, 2.9% ash, and 8.7% water, and its calorie was 1,523 kJ. The feed was stored at 4° C. after preparation, and a fresh feed was supplied every day.
(§3) The animals were weighed at given intervals of time, and the average values and standard errors of the experimental groups were determined. In addition, feed consumptions were measured at given intervals of time and daily averages per mouse were determined. The animals were observed every day. After the end of the feeding, the animals were anesthetized to death with carbon dioxide gas, and bloods were collected from the vena cava to obtain serums. The animals were autopsied, and the brains, lungs, hearts, livers, spleens, kidneys, testis, adrenals and intraperitoneal fat were examined by the naked eye and weighed. As to serum lipid, neutral fats were measured by using a clinical test kit based on the enzyme method (Triglyceride-E Test, Wako Pure Chemicals Industries Co., Ltd.), and total cholesterol and cholestanol were measured by the method of Kasama (T. Kasama, et al., J. Chromatogr., 400, 241, 1987) with modifications, where the amount of benzoyl chloride was increased by 10 times, the reaction time was doubled, and the measurement was performed by using a high performance liquid chromatography system. Significant differences were determined by t-test for body weights and serum lipids on the basis of the non-treated control mice.

[2] = Example 3: dose response of 5-sitosten-3-one on serum lipids; format: in vivo, CDF1 male mice; settings: for Free fatty acid / HDL-cholesterol / Phospholipid / Total cholesterol / Triglyceride: 3 weeks, mean (n=6) ± standard error
Excerpt: (§4) 5Sitosten-3-one was synthesized from β-sitosterol (Tokyo Chemical Industry Co., Ltd.) according to the method of Parish (Parish, E. J., et al., Synthetic Communication, 22, pp.2839-2847, 1992), and purified by silica gel column chromatography and recrystallization. The content ratio of 24-ethyl isomer and 24-methyl compounds in the synthesized product was 6.5:3.5. As experimental animals, thirty 4-week old CDF1 male mice were purchased from Charles River Japan Inc. and divided into five experimental groups each composed of six mice. The test compounds were administered as the admixture in feeds, and the following groups were provided: (1) 0.1% addition, (2) 0.3% addition, (3) 0.5% addition, (4) a lipid-free feed without the addition of the test compound, and (5) control group without the addition of the test compound. A purified feed (modified AIN, Oriental Yeast Co.) was used as a basic feed, and supplemented with 10% soybean oil (Wako Pure Chemical Industries Co., Ltd.) to prepare solid feeds with or without the addition of the test compound. The lipid-free feed, per se, was processed to obtain solid feed. The animals were fed for a week with the feed for the control without the addition of test compound for acclimatization, and then the animals were allowed to feed with the respective feed ad libitum.
(§5) Each group of animals was housed in an aluminum cages of 22×33×11(h)cm (6 mice per a cage), and feedings were carried out at a temperature of 24±1° C. and a relative humidity of 55±5%, where light and darkness were controlled change every 12 hours. Measurements of body weights and feed intakes, and observations of general conditions were conducted three times a week. After the feeding for 3 week with the test feeds, the animals were subjected to autopsy and their bloods were collected. As serum lipid analyses, triglyceride, phospholipid, free fatty acid, total cholesterol, and HDL-cholesterol were measured by using a clinical test kit (Wako Pure Chemicals Industries Co., Ltd. ). Significances of the resulting values were examined by the variance analysis for the groups treated with the medicament, or by the t-test for the lipid-free feed group.

[3] = Example 3: general conditions and weight of organs; format: in vivo, CDF1 male mice
Excerpt: as §4, §5

[4] = Example 1: serum lipids and serum metabolites of mice fed feed supplemented with 0.5% test compound; format: in vivo; settings: for Serum metabolite: metabolite of the test compound detected in serum; for Serum metabolite / Serum cholesterol / Serum neutral fats: CDF1 mice; for Serum cholesterol / Serum neutral fats: ratio relative to the non-treated control group
Procedure: as §1, §2, §3

[5] = Feeding of rats with feed with 0.5% addition for 4 weeks (organ changes); format: in vivo; settings: Fischer F344 rats
Excerpt: The changes observed in the livers, pancreases, kidneys, and lungs in the groups treated with the medicament were commonly observed in the lipid-free feed group, although the degrees were different. In the lipid-free feed group, absolute weight and relative weight of livers increased by 4% and 6%, respectively, and absolute weight and relative weight of kidneys decreased by 12% and 11%, respectively. […] These changes were not observed when Fischer F344 rats were fed with the feed with 0.5% addition for 4 weeks, and therefore, the changes were considered as unique to CDF1 mice.

[6] = Example 3: dose response of 5-sitosten-3-one on body weight, feed intake, feed efficiency and intraperitoneal fat; format: in vivo, CDF1 male mice; settings: for Intraperitoneal fat: 3 weeks, mean (n=6) ± standard error; for Body weight gain: total throughout the experimental period
Excerpt: as §4, §5

[7] = Example 1: body weight, body fat and feed intake of mice fed feed supplemented with 0.5% test compound; format: in vivo, CDF1 male mice; settings: for Body weight gain / Intraperitoneal fat: ratio relative to the non-treated control group, CDF1 mice
Procedure: as §1, §2, §3

[8] = Example 4: body weight and body fat of mice fed 0.5% test compound for 14 days; format: in vivo, CDF1 male mice; settings: 0.5% in feed
Procedure: (§6) 5-Campesten-3-one was prepared from campesterol (>97%, Tama Biochemical Industry, Ltd.). 4-Sitosten-3,6-dione was prepared from β-sitosterol (>65%, Tokyo Chemical Industry Co., Ltd.) and obtained as a mixture of 24-ethyl compound and 24-methyl compound (2:1). 5-Stigmasten-3-one was prepared from stigmasterol (>94%, Tokyo Chemical Industry, Co., Ltd.). As experimental animals, six CDF1 male mice (5-week old, Charles River Japan Inc.) were used in each experimental group. Modified AIN (Oriental Yeast Co.) was used as basic feed and mixed with 0.5% of each test compound to prepare test feeds. The animals were allowed to feed with the test food ad libitum for 14 days. Measurements of body weights and observations of general conditions of the animals were carried out twice a week, and the animals were subjected to autopsy and their bloods were collected. Serum lipid analysis was conducted by using a clinical test kit based on the enzymatic method (Wako Pure Chemicals Industries Co., Ltd.). Significances of the resulting values were examined by the one-way analysis of variance with pairwise comparison (ANOVA) according to the Bonferroni method. Other conditions were the same as those described in Example 1.

[9] = Example 4: serum lipid concentration of mice fed 0.5% test compound for 14 days; format: in vivo, CDF1 male mice; settings: 0.5% in feed
Procedure: as §6

5-sitosten-3-one (24-ethylcholest-5-en-3-one)
General conditions [1]: normal | Kidney weight at autopsy [1]: slight weight decrease | Pathological abnormality in the other organs and tissues ([1]; autopsy): No pathological abnormality | Free fatty acid ([2]; 0.1% addition to feed): 1.41 ± 0.04 mEq/dl | HDL-cholesterol ([2]; 0.1% addition to feed): 68.7 ± 13.6 mg/dL | Phospholipid ([2]; 0.1% addition to feed): 237.8 ± 8.9 mg/dL | Total cholesterol ([2]; 0.1% addition to feed): 164.8 ± 4.0 mg/dL | Triglyceride ([2]; 0.1% addition to feed): 145.4 ± 8.5 mg/dL | Change in HDL-cholesterol ([2]; 0.1-0.5% addition groups): no significant change | Free fatty acid ([2]; 0.3% addition to feed): 1.05 ± 0.06 mEq/dl | HDL-cholesterol ([2]; 0.3% addition to feed): 72.5 ± 7.7 mg/dL | Phospholipid ([2]; 0.3% addition to feed): 187.0 ± 12.2 mg/dL | Total cholesterol ([2]; 0.3% addition to feed): 125.5 ± 7.6 mg/dL | Triglyceride ([2]; 0.3% addition to feed): 78.0 ± 0.9 mg/dL | Triglyceride as compared to the control group (decrease down to) ([2]; 0.5% addition group): 26% | Free fatty acid ([2]; 0.5% addition to feed): 0.87 ± 0.05 mEq/dl | HDL-cholesterol ([2]; 0.5% addition to feed): 61.7 ± 4.3 mg/dL | Phospholipid ([2]; 0.5% addition to feed): 172.5 ± 8.6 mg/dL | Total cholesterol ([2]; 0.5% addition to feed): 102.9 ± 6.4 mg/dL | Triglyceride ([2]; 0.5% addition to feed): 66.8 ± 2.3 mg/dL | Liver weight difference ([3]; 0.1% addition group): no significant difference | Absolute weights of pancreas ([3]; 0.1-0.5% addition groups): decreased in proportion to the amount of the medicament | Changes in relative weight of pancreas ([3]; 0.1-0.5% addition groups): not significant | Decrease of absolute weight of kidney ([3]; 0.3% addition group): 17% | Decrease of relative weight of kidney ([3]; 0.3% addition group): 10% | Increase of relative weight of livers ([3]; 0.3% addition group): 17% | Absolute weight of lungs and spleens ([3]; 0.5% addition group): Decreases | Decrease of absolute weight of kidney ([3]; 0.5% addition group): 32% | Decrease of relative weight of kidney ([3]; 0.5% addition group): 17% | Increase of absolute weight of livers ([3]; 0.5% addition group): 15% | Increase of relative weight of livers ([3]; 0.5% addition group): 40% | Relative weights of lungs and spleens ([3]; 0.5% addition group): not different from those of the control group | General conditions (appearance, properties of feces, breath and behavior) ([3]; each experimental group, except for changes in body weight): No abnormality | Histopathological change ([3]; organs of treated CDF1 mice): absence of any histopathological change | Cholestanol (serum), mean ± standard error ([4]; 0.5% in feed, 2 weeks, n=6): 0 mg/dL | Neutral fats (serum), mean ± standard error ([4]; 0.5% in feed, 2 weeks, n=6): 56.5 ± 8.2 mg/dL | Total cholesterol (serum), mean ± standard error ([4]; 0.5% in feed, 2 weeks, n=6): 81.3 ± 3.0 mg/dL | Serum metabolite [4]: 0 | Serum metabolite ([4]; listed as 5-sitosten-3-one): no cholestanol and other metabolites were detected | Serum cholesterol [4]: 51% | Serum neutral fats [4]: 15% | Organ weight changes (livers, pancreases, kidneys, lungs) [5]: not observed | Amount of intraperitoneal fat relative to the control group ([6]; 0.1% addition group): 83% | Feed efficiency (body weight gain/feed intake) ([6]; 0.1% addition to feed): 0.079 | Intraperitoneal fat ([6]; 0.1% addition to feed): 996.0 ± 53.5 mg | Body weight gain ([6]; 0.1% addition to feed): 4.89 g/mouse | Changes in body weight (FIG. 4) ([6]; 0.1%, 0.3% and 0.5% addition, dose-dependent): body weight decreases were observed | Amount of intraperitoneal fat relative to the control group ([6]; 0.3% addition group): 63% | Feed efficiency (body weight gain/feed intake) ([6]; 0.3% addition to feed): 0.062 | Intraperitoneal fat ([6]; 0.3% addition to feed): 760.7 ± 36.9 mg | Body weight gain ([6]; 0.3% addition to feed): 3.62 g/mouse | Amount of intraperitoneal fat relative to the control group ([6]; 0.5% addition group): 42% | Decrease of feed efficiency compared to the control group ([6]; 0.5% addition group): about 80% | Feed efficiency (body weight gain/feed intake) ([6]; 0.5% addition to feed): 0.016 | Intraperitoneal fat ([6]; 0.5% addition to feed): 500.6 ± 79.2 mg | Body weight gain ([6]; 0.5% addition to feed): 0.84 g/mouse | Amount of intraperitoneal fat relative to non-treated control mice (FIG. 2) ([7]; 0.5% in feed for two weeks): half | Body fat (subcutaneous fat and intraperitoneal fat) ([7]; 0.5% in feed for two weeks): Remarkable decreases | Increase in body weight (FIG. 1) ([7]; 0.5% in feed, compared to non-treated control mice): remarkably suppressed | Body weight gain [7]: 56% | Intraperitoneal fat [7]: 50%

CC(C)CCC[C@@H](C)[C@H]1CC[C@H]2[C@@H]3CCC4=CC(=O)CC[C@]4(C)[C@H]3CC[C@]12C [4-Cholesten-3-one, 4-cholesten-3-one]
Spleens at autopsy [1]: enlargements | Neutral fats (serum), mean ± standard error ([4]; 0.5% in feed, 2 weeks, n=6): 197.7 ± 28.1 mg/dL | Total cholesterol (serum), mean ± standard error ([4]; 0.5% in feed, 2 weeks, n=6): 99.2 ± 5.8 mg/dL | Serum metabolite [4]: Cholestanol | Serum metabolite ([4]; listed as 4-cholesten-3-one): cholestanol | Serum cholesterol [4]: 62% | Serum neutral fats [4]: 54% | Body weight gain [7]: 72^a % | Intraperitoneal fat [7]: 74%

CC[C@H](CC[C@@H](C)[C@H]1CC[C@H]2[C@@H]3CC(=O)C4=CC(=O)CC[C@]4(C)[C@H]3CC[C@]12C)C(C)C [4-Sitosten-3,6-dione]
Effect on the increase of body weight (FIG. 6) [8]: Significant inhibitory effects | Intraperitoneal fat ([8]; mean (n=6) ± standard error): 472.7 ± 37.7 mg | Decrease of body fat ([8]; versus non-treated mice): ~40% | Decrease of serum total cholesterol concentration [9]: ~18% | Decrease of serum triglyceride concentration [9]: ~66% | Total cholesterol ([9]; mean (n=6) ± standard error): 156.3 ± 6.4 mg/dL | Triglyceride ([9]; mean (n=6) ± standard error): 85.8 ± 9.2 mg/dL
